Assays:
ZEAMX [1] = test: Pre-emergence effects on crop plants (Table D1); type: in vivo, Zea mays; settings: crop plant; application rate 80 g/ha; visual grading after ca. 3 weeks
MATIN [2] = test: Herbicidal post-emergence action (Table B6); type: in vivo, Matricaria inodora; settings: application rate 1280 g/ha; rated visually after about 3 weeks
How it was run: (§1)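 Each pot held sandy loam sown with a single mono- or dicot weed species, grown under controlled greenhouse conditions. Test plants were sprayed at the one-leaf stage, and after about 3 weeks of further growth the percentage activity relative to untreated plants was rated visually.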

ORYZA [3] = test: Post-emergence effects on crop plants (Table F3); type: in vivo, Oryza sativa; settings: application rate 320 g/ha, crop plant ORYZA
From the text: (§2) 2 to 3 weeks after sowing, the test plants were sprayed in the single-leaf stage.

GLXMA = test: Post-emergence effects on crop plants (Table F4); type: in vivo, Glycine max; settings: application rate 80 g/ha, crop plant GLXMA
From the text: as §2

ECHCG [4] = test: Herbicidal pre-emergence action (Table A2); type: in vivo, Echinochloa crus-galli; settings: application rate 320 g/ha; visual grading after ca. 3 weeks
How it was run: (§3)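 Pots: sandy loam. Sowing: one mono- and one dicot weed species together per pot. Seeds covered with soil.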

TRZAS [5] = test: Pre-emergence effects on crop plants (Table D2); type: in vivo, Triticum aestivum; settings: crop plant; application rate 80 g/ha; visual grading after ca. 3 weeks
POAAN [6] = test: Herbicidal post-emergence action (Table B7); type: in vivo, Poa annua
How it was run: as §1

TRZAS [7] = test: Post-emergence effects on crop plants (Table F2); type: in vivo, Triticum aestivum; settings: crop plant TRZAS
From the text: as §2

BRSNW [8] = test: Pre-emergence effects on crop plants (Table D5); type: in vivo, Brassica napus; settings: crop plant; application rate 320 g/ha; visual grading after ca. 3 weeks
VERPE [9] = test: Herbicidal pre-emergence action, section C (Table C11); type: in vivo, Veronica persica; settings: application rate 320 g/ha; visual grading after ca. 3 weeks
STEME = test: Herbicidal pre-emergence action (Table A6); type: in vivo, Stellaria media; settings: application rate 320 g/ha; visual grading after ca. 3 weeks
How it was run: as §3

SETVI [10] = test: Herbicidal pre-emergence action (Table A5); type: in vivo, Setaria viridis; settings: application rate 320 g/ha; visual grading after ca. 3 weeks
How it was run: as §3

MATIN [11] = test: Herbicidal pre-emergence action (Table A4); type: in vivo, Matricaria inodora; settings: visual grading after ca. 3 weeks
How it was run: as §3

ABUTH [12] = test: Herbicidal pre-emergence action (Table A1); type: in vivo, Abutilon theophrasti; settings: application rate 1280 g/ha; visual grading after ca. 3 weeks vs untreated controls (100% = plants have died off, 0% = as control plants)
How it was run: as §3

LOLRI [13] = test: Herbicidal pre-emergence action (Table A3); type: in vivo, Lolium rigidum; settings: visual grading after ca. 3 weeks
How it was run: as §3

SETVI [14] = test: Herbicidal pre-emergence action, section C (Table C10); type: in vivo, Setaria viridis; settings: visual grading after ca. 3 weeks
POAAN [15] = test: Herbicidal pre-emergence action (Table A7); type: in vivo, Poa annua; settings: application rate 320 g/ha; visual grading after ca. 3 weeks
How it was run: as §3

ZEAMX [16] = test: Post-emergence effects on crop plants (Table F1); type: in vivo, Zea mays; settings: crop plant ZEAMX
From the text: as §2

VIOTR [17] = test: Herbicidal pre-emergence action, section C (Table C12); type: in vivo, Viola tricolor; settings: visual grading after ca. 3 weeks
ALOMY [18] = test: Herbicidal post-emergence action, section E (Table E2); type: in vivo, Alopecurus myosuroides; settings: application rate 320 g/ha; assessed visually after ca. 3 weeks
From the text: as §2

LOLRI [19] = test: Herbicidal pre-emergence action, section C (Table C7); type: in vivo, Lolium rigidum; settings: application rate 320 g/ha; visual grading after ca. 3 weeks
BRSNW [20] = test: Post-emergence effects on crop plants (Table F5); type: in vivo, Brassica napus; settings: crop plant BRSNW
From the text: as §2

ALOMY [21] = test: Herbicidal pre-emergence action, section C (Table C2); type: in vivo, Alopecurus myosuroides; settings: visual grading after ca. 3 weeks
ORYZA [22] = test: Pre-emergence effects on crop plants (Table D3); settings: crop plant, visual grading after ca. 3 weeks
ECHCG [23] = test: Herbicidal pre-emergence action, section C (Table C6); type: in vivo, Echinochloa crus-galli; settings: application rate 80 g/ha; visual grading after ca. 3 weeks
From the text: Seeds of mono- and dicotyledonous weed plants and crop plants were sown, in plastic or organic planting pots, in sandy loam and covered with soil. The compounds according to the invention, formulated in the form of wettable powders (WP) or as emulsifiable concentrates (EC), were applied to the surface of the covering soil as aqueous suspension or emulsion, with the addition of 0.5% of an additive, at an application rate of 600 1 of water/ha (converted). Following treatment, the pots were placed in a greenhouse and kept under optimum growth conditions for the test plants.

AMARE = test: Herbicidal pre-emergence action (Table A8); type: in vivo, Amaranthus retroflexus; settings: application rate 1280 g/ha; visual grading after ca. 3 weeks vs untreated controls (100% = plants have died off, 0% = as control plants)
From the text: Seeds of mono- and dicotyledonous weed plants were sown in plastic pots (double sowings with one species of mono- and one species of dicotyledonous weed plants per pot), in sandy loam, and covered with soil.

ABUTH [24] = test: Herbicidal post-emergence action (Table B1); type: in vivo, Abutilon theophrasti; settings: application rate 1280 g/ha; treated at one-leaf stage; rated visually after about 3 weeks vs untreated controls (100% = plants have died, 0% = like control plants)
Procedure: Seeds of mono- and dicotyledonous weed plants were placed in plastic pots in sandy loam soil (doubly sown with in each case one species of mono- or dicotyledonous weed plants per pot), covered with soil and cultivated in a greenhouse under controlled growth conditions. 2 to 3 weeks after sowing, the test plants were treated at the one-leaf stage. […] After the test plants had been kept in the greenhouse under optimum growth conditions for about 3 weeks, the activity of the preparations was rated visually in comparison to untreated controls. For example, 100% activity = the plants have died, 0% activity = like control plants.

VIOTR [25] = test: Herbicidal post-emergence action, section E (Table E10); type: in vivo, Viola tricolor; settings: application rate 320 g/ha; assessed visually after ca. 3 weeks
From the text: as §2

DIGSA [26] = test: Herbicidal pre-emergence action (Table A12); type: in vivo, Digitaria sanguinalis; settings: application rate 320 g/ha; visual grading after ca. 3 weeks
How it was run: as §3

ABUTH [27] = test: Herbicidal pre-emergence action, section C (Table C1); type: in vivo, Abutilon theophrasti; settings: application rate 320 g/ha; visual grading after ca. 3 weeks
POLCO = test: Herbicidal pre-emergence action, section C (Table C9); type: in vivo, Polygonum convolvulus; settings: application rate 80 g/ha; visual grading after ca. 3 weeks
SETVI [28] = test: Herbicidal post-emergence action (Table B8); type: in vivo, Setaria viridis; settings: application rate 1280 g/ha
How it was run: as §1

ALOMY [29] = test: Herbicidal pre-emergence action (Table A9); type: in vivo, Alopecurus myosuroides; settings: application rate 1280 g/ha; visual grading after ca. 3 weeks
How it was run: as §3

VERPE [30] = test: Herbicidal pre-emergence action (Table A11); type: in vivo, Veronica persica; settings: application rate 1280 g/ha; visual grading after ca. 3 weeks
How it was run: as §3

MATIN [31] = test: Herbicidal pre-emergence action, section C (Table C8); type: in vivo, Matricaria inodora; settings: application rate 320 g/ha; visual grading after ca. 3 weeks
DIGSA [32] = test: Herbicidal pre-emergence action, section C (Table C5); type: in vivo, Digitaria sanguinalis; settings: application rate 320 g/ha; visual grading after ca. 3 weeks

O=C1N(Cc2cccc(F)c2F)CCCC12CCCN(Cc1cccc(F)c1F)C2=O (racemic) [I-012]
100%: pre-emergence activity against ECHCG (ECHCG [4]) | post-emergence activity against POAAN (POAAN [6]; application rate 320 g/ha) | pre-emergence activity against SETVI (SETVI [10]) | pre-emergence activity against LOLRI (LOLRI [13]; application rate 1280 g/ha) | pre-emergence activity against SETVI (SETVI [14]; application rate 320 g/ha) | pre-emergence activity against POAAN (POAAN [15]) | pre-emergence activity against LOLRI (LOLRI [19]) | pre-emergence activity against ECHCG (ECHCG [23])
0%: post-emergence activity against GLXMA (GLXMA) | post-emergence activity against TRZAS (TRZAS [7]; application rate 80 g/ha) | pre-emergence activity against BRSNW (BRSNW [8]) | post-emergence activity against ZEAMX (ZEAMX [16]; application rate 320 g/ha)
20%: pre-emergence activity against ZEAMX (ZEAMX [1]) | pre-emergence activity against TRZAS (TRZAS [5]) | post-emergence activity against BRSNW (BRSNW [20]; application rate 320 g/ha)
10%: post-emergence activity against ORYZA (ORYZA [3]) | pre-emergence activity against ORYZA (ORYZA [22]; application rate 320 g/ha)
80%: pre-emergence activity against VERPE (VERPE [9]) | pre-emergence activity against VIOTR (VIOTR [17]; application rate 320 g/ha) | post-emergence activity against ALOMY (ALOMY [18])
90%: post-emergence activity against MATIN (MATIN [2]) | pre-emergence activity against STEME (STEME) | pre-emergence activity against MATIN (MATIN [11]; application rate 1280 g/ha) | pre-emergence activity against ABUTH (ABUTH [12]) | pre-emergence activity against ALOMY (ALOMY [21]; application rate 80 g/ha)

O=C1N(Cc2ccccc2F)CCCC12CCN(Cc1ccccc1F)C2=O (racemic) [I-026]
100%: pre-emergence activity against DIGSA (DIGSA [26]) | pre-emergence activity against ECHCG (ECHCG [4]) | pre-emergence activity against SETVI (SETVI [10]) | pre-emergence activity against LOLRI (LOLRI [13]; application rate 320 g/ha) | pre-emergence activity against SETVI (SETVI [14]; application rate 80 g/ha) | pre-emergence activity against ALOMY (ALOMY [29]) | pre-emergence activity against POAAN (POAAN [15]) | pre-emergence activity against DIGSA (DIGSA [32]) | pre-emergence activity against LOLRI (LOLRI [19]) | pre-emergence activity against ALOMY (ALOMY [21]; application rate 320 g/ha) | pre-emergence activity against ECHCG (ECHCG [23])
90%: pre-emergence activity against AMARE (AMARE) | post-emergence activity against ABUTH (ABUTH [24]) | post-emergence activity against POAAN (POAAN [6]; application rate 1280 g/ha) | pre-emergence activity against STEME (STEME) | pre-emergence activity against MATIN (MATIN [11]; application rate 320 g/ha) | pre-emergence activity against ABUTH (ABUTH [12]) | post-emergence activity against SETVI (SETVI [28]) | pre-emergence activity against VERPE (VERPE [30]) | pre-emergence activity against MATIN (MATIN [31]) | pre-emergence activity against VIOTR (VIOTR [17]; application rate 80 g/ha)
80%: post-emergence activity against VIOTR (VIOTR [25]) | pre-emergence activity against ABUTH (ABUTH [27]) | pre-emergence activity against VERPE (VERPE [9]) | pre-emergence activity against POLCO (POLCO)
0%: pre-emergence activity against ZEAMX (ZEAMX [1]) | post-emergence activity against ORYZA (ORYZA [3]) | post-emergence activity against GLXMA (GLXMA) | pre-emergence activity against TRZAS (TRZAS [5]) | post-emergence activity against TRZAS (TRZAS [7]; application rate 320 g/ha) | post-emergence activity against ZEAMX (ZEAMX [16]; application rate 80 g/ha) | post-emergence activity against BRSNW (BRSNW [20]; application rate 80 g/ha) | pre-emergence activity against ORYZA (ORYZA [22]; application rate 80 g/ha)

Reference: patent publication EP4273147A1, “SUBSTITUTED SPIROLACTAMS, SALTS THEREOF AND THEIR USE AS HERBICIDALLY ACTIVE SUBSTANCES” (Bayer Aktiengesellschaft, priority 2022, dated 2023)
